The text below walks through data of ChEMBL document CHEMBL4627336, “Inhibitory effects of biseokeaniamide A against lipopolysaccharide-induced signal transduction” (Bioorg Med Chem Lett, 2020).

Data set [1] relates to RAW264.7. Description: Inhibition of LPS-induced IL-6 production in mouse RAW264.7 cells at 1 to 30 uM preincubated for 1 hr followed by LPS stimulation and measured after 24 hrs by ELISA. It is filed as functional, cell-based.
The subject of data set [2] is RAW264.7. Description: Inhibition of LPS-induced TNFalpha production in mouse RAW264.7 cells at 1 to 30 uM preincubated for 1 hr followed by LPS stimulation and measured after 24 hrs by ELISA. It is filed as functional, cell-based.
The subject of data set [3] is RAW264.7. In words: Inhibition of LPS-induced NO production in mouse RAW264.7 cells preincubated for 1 hr followed by LPS stimulation and measured after 24 hrs by Griess reagent based assay. It is filed as functional, cell-based.
In data set [4] the test system is RAW264.7. In words: Cytotoxicity against mouse RAW264.7 cells assessed as reduction in cell viability upto 30 uM incubated for 24 hrs in presence of LPS by MTT assay. The note with it: raw264.7, 24 h. It is filed as cell-based.
Data set [5] has as its system RAW264.7. Description: Inhibition of LPS-induced degraded IkappaBalpha regeneration in mouse RAW264.7 cells at 10 uM measured upto 90 mins by Western blot analysis. It is filed as functional, cell-based.
Data set [6] deals with RAW264.7. Description: Inhibition of LPS-induced iNOS expression in mouse RAW264.7 cells at preincubated for 1 hr followed by LPS stimulation and measured after 24 hrs by Western blot analysis. It is filed as functional, cell-based.
Data set [7] relates to RAW264.7. Description: Inhibition of LPS-induced IkappaBalpha degradation in mouse RAW264.7 cells at 1 to 30 uM incubated for 30 mins by Western blot analysis. It is filed as functional, cell-based.
The test system of data set [8] is RAW264.7. Description: Inhibition of LPS-induced IL-1beta production in mouse RAW264.7 cells preincubated for 1 hr followed by LPS stimulation and measured after 24 hrs by ELISA. It is filed as functional, cell-based.
For data set [9], the system named is RAW264.7. In words: Inhibition of LPS-induced iNOS expression in mouse RAW264.7 cells at 1 uM preincubated for 1 hr followed by LPS stimulation and measured after 24 hrs by Western blot analysis relative to control. It is filed as functional.
In data set [10] the test system is RAW264.7. In words: Inhibition of LPS-induced NO production in mouse RAW264.7 cells at 0.1 to 10 uM preincubated for 1 hr followed by LPS stimulation and measured after 24 hrs by Griess reagent based assay. It is filed as functional, cell-based.
Data set [11] relates to RAW264.7. Description: Inhibition of LPS-induced IL-1beta production in mouse RAW264.7 cells at 1 uM preincubated for 1 hr followed by LPS stimulation and measured after 24 hrs by ELISA. It is filed as functional, cell-based.
In data set [12] the test system is RAW264.7. In words: Inhibition of LPS-induced TNFalpha production in mouse RAW264.7 cells at 1 uM preincubated for 1 hr followed by LPS stimulation and measured after 24 hrs by ELISA. It is filed as functional, cell-based.
Data set [13] deals with RAW264.7. In words: Inhibition of LPS-induced IkappaBalpha degradation in mouse RAW264.7 cells at 1 uM incubated for 30 mins by Western blot analysis. It is filed as functional, cell-based.
In data set [14] the test system is RAW264.7. In words: Inhibition of LPS-induced IL-6 production in mouse RAW264.7 cells at 1 uM preincubated for 1 hr followed by LPS stimulation and measured after 24 hrs by ELISA. It is filed as functional, cell-based.

Molecules are shown by their SMILES. The source made the active and inactive calls. The rule behind the calls is not given here. Where a SMILES comes first, the peptide text is derived from it. Bridges are numbered along the chain shown (N, C = ends). [ ]: non-standard residue; d: D form. The star is where a group is joined. NMeF = CN[C@@H](Cc1ccccc1)C(=O)O; NMeV = CN[C@H](C(=O)O)C(C)C; X2 = CC[C@H](C)CCCCC(=O)*; dDab = NCC[C@@H](N)C(=O)O; Dab = NCC[C@H](N)C(=O)O; Butyryl = CCCC(=O)*; X1 = CN(Cc1nccs1)*

Consider `CCCC(=O)N(C)[C@H](C(=O)N1CCC[C@H]1C(=O)N(C)[C@@H](Cc1ccccc1)C(=O)N[C@@H](CC(C)C)C(=O)N(C)[C@H](C(=O)N(C)Cc1nccs1)C(C)C)C(C)C` (Butyryl-[NMeV]P[NMeF]L[NMeV]-X1), for which the inhibition entry with RAW264.7 [1], in the data set on RAW264.7 [2] and with RAW264.7 [7] was “inactive” in each case. The IC50 came to 6.47 µM with RAW264.7 [3] and 14.5 µM in the data set with RAW264.7 [8]. For the same compound, the inhibition result in the data set on RAW264.7 [3], with RAW264.7 [6] and with RAW264.7 [8] was “Dose-dependent effect” each time. Besides, the Activity entry with RAW264.7 [4] is recorded as “Non-Toxic”. Besides, the inhibition entry with RAW264.7 [5] was “Active”.

`CC[C@H](C)CCCCC(=O)N[C@@H](CCN)C(=O)N[C@H](C(=O)N[C@@H](CCN)C(=O)N[C@H]1CCNC(=O)[C@H]([C@@H](C)O)NC(=O)[C@H](CCN)NC(=O)[C@H](CCN)NC(=O)[C@H](CC(C)C)NC(=O)[C@@H](Cc2ccccc2)NC(=O)[C@H](CCN)NC1=O)[C@@H](C)O` (X2-[Dab]T[Dab][Dab][Dab][dF]L[Dab][Dab]T; lactam 4-C) showed an inhibition at 1 µM in the data set on RAW264.7 [9] of 100%.

For the compound `CC[C@H](C)CCCCC(=O)N[C@@H](CCN)C(=O)N[C@H](C(=O)N[C@@H](CCN)C(=O)N[C@H]1CCNC(=O)[C@H]([C@@H](C)O)NC(=O)[C@H](CCN)NC(=O)[C@H](CCN)NC(=O)[C@H](CC(C)C)NC(=O)[C@@H](Cc2ccccc2)NC(=O)[C@@H](CCN)NC1=O)[C@@H](C)O` (X2-[Dab]T[Dab][Dab][dDab][dF]L[Dab][Dab]T; lactam 4-C), the inhibition result in the data set with RAW264.7 [10], with RAW264.7 [11], in the data set with RAW264.7 [12], in the data set on RAW264.7 [13] and in the data set with RAW264.7 [14] was “Active” each time.
